# In patent publication US12336981B2, “Compounds and compositions for the inhibition of NAMPT” (Valo Health, Inc., priority 2010, dated 2025):
# “And” between values parts separate entries of the source, which are not always exact repeats. Equal values may be shown once.
# Assays:
# NAMPT = target: T1, NAMPT (Homo sapiens, UniProt P43490); assay: Biochemical inhibition assay: NAMPT enzymatic reaction, NMN quantified by mass spectrometry; details: NAMPT enzymatic assay; read-out: Biochem IC50
# T1 construct: His tag; host or cells: E. coli
# T1 sequence (P43490 whole entry): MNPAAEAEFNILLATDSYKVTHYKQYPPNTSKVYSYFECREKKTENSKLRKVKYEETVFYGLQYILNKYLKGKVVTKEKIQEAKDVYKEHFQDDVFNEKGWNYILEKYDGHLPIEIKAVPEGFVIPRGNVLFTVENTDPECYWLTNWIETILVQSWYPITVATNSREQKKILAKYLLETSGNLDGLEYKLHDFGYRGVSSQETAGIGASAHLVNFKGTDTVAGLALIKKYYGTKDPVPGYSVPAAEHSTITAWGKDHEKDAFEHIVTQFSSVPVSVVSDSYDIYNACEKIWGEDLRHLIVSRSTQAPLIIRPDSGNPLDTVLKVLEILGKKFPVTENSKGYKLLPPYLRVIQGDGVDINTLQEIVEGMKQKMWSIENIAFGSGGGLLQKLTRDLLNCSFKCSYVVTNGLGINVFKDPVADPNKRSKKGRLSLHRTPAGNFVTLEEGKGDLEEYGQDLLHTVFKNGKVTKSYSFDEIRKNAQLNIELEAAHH
# Method: Biochemical Inhibition Assay
# NAMPT Protein Purification
# Recombinant His-tagged NAMPT was produced in E. coli cells, purified over a Ni column, and further purified over a size-exclusion column by XTAL Biostructures.
# The NAMPT Enzymatic Reaction
# The NAMPT enzymatic reactions were carried out in Buffer A (50 mM Hepes pH 7.5, 50 mM NaCl, 5 mM MgCl2, and 1 mM THP) in 96-well V-bottom plates. The compound titrations were performed in a separate dilution plate by serially diluting the compounds in DMSO to make a 100× stock. […] The compound and enzyme mix was incubated for 15 minutes at room temperature, then 10 μL of 10× substrate and co-factors in Buffer A were added to the test well to make a final concentration of 1 μM NAM, 100 μM 5-Phospho-D-ribose 1-diphosphate (PRPP), and 2.5 mM Adenosine 5′-triphosphate (ATP). The reaction was allowed to proceed for 30 minutes at room temperature, then was quenched with the addition of 11 μL of a solution of formic acid and L-Cystathionine to make a final concentration of 1% formic acid and 10 μM L-Cystathionine. Background and signal strength was determined by addition (or non-addition) of a serial dilution of NMN to a pre-quenched enzyme and cofactor mix.
# A mass spectrometry-based assay was used to measure the NAMPT reaction product (NMN) and the internal control (L-Cystathionine). NMN and L-Cystathionine were detected using the services of Biocius Lifesciences with the RapidFire system. In short, the NMN and L-Cystathionine are bound to a graphitic carbon cartridge in 0.1% formic acid, eluted in 30% acetonitrile buffer, and injected into a Sciex 4000 mass spectrometer. The components of the sample were ionized with electrospray ionization and the positive ions were detected. […] The fragments are quantified and the analyzed by the following method.
# First the NMN signal is normalized to the L-Cystathionine signal by dividing the NMN signal by the L-Cystathionine signal for each well. The signal from the background wells are averaged and subtracted from the test plates. […] IC50s are Determined Using Excel and this Formula.
# A2780 cells = assay: In-vitro cell proliferation assay (SRB), A2780 cells; format: cell-based; details: Homo sapiens, A2780, 72 h, A2780 cells, 72 hours, SRB; read-out: A2780 IC50
# Method: In-Vitro Cell Proliferation Assay
# After overnight incubation at 37° C. and 5% CO2, the compound titrations were performed in a separate dilution plate by serially diluting the compounds in DMSO to make a 1000× stock. The compounds were then further diluted to 10× final concentration in culture media, whereupon 20 μL of each dilution was added to the plated cells with controls (e.g. DMSO and blank) to make a final volume of 200 μL. The final DMSO concentration in each well was 0.1%. The plates were then incubated for 72 hours at 37° C. in a 5% CO2 incubator. The number of viable cells was then assessed using sulforhodamine B (SRB) assay. Cells were fixed at 4° C. for 1 hour with the addition of 50 μL 30% trichloroacetic acid (TCA) to make a final concentration of 6% TCA. The plates were washed four times with H2O and allowed to dry for at least 1 hour, whereupon 100 μL of a 4% SRB in 1% acetic acid solution was added to each well and incubated at room temperature for at least 30 minutes. The plates were then washed three times with 1% acetic acid, dried, and treated with 100 μL of 10 mM Tris-Base solution. The plates were then read in a microplate reader at an absorbance of 570 nm. Background was generated on a separate plate with media only.
# Method for Determining % Inhibition
# First, the signals from the background plate are averaged, then the background was subtracted from the test plates.
# wherein X denotes the compound concentration 1, Y denotes the compound concentration 2, XX denotes the % inhibition at compound concentration 1 (X), and YY denotes the % inhibition at compound concentration 2 (Y).
Compound,IC50 (NAMPT),IC50 (A2780 cells) [nM]
Cc1cc(-n2cccn2)ccc1S(=O)(=O)c1ccc(CNC(=O)c2cc3ccncc3o2)cc1,6.2 nM,6
Cc1cc(-n2cccn2)ccc1S(=O)(=O)c1ccc(CNC(=O)c2cc3ccncc3s2)cc1,1.5 nM,3.1
Cc1cc(-n2cccn2)ccc1S(=O)(=O)c1ccc(CNC(=O)c2cnc3[nH]ncc3c2)cc1,27.1 nM,23.5
Cc1cc(C(F)(F)F)ccc1S(=O)(=O)c1ccc(CNC(=O)c2ccc3nccn3c2)cc1,24.7 nM,16.6
Cc1cc(C(F)(F)F)ccc1S(=O)(=O)c1ccc(CNC(=O)c2cc3ccncc3o2)cc1,34.5 nM,63.1
Cc1cc(C(F)(F)F)ccc1S(=O)(=O)c1ccc(CNC(=O)c2cnc3nccn3c2)cc1,7.1 nM,51.1
Cc1cc(C(F)(F)F)ccc1S(=O)(=O)c1ccc(CNC(=O)c2cc3cnccc3[nH]2)cc1,30.5 nM,25.3
Cc1cc(C(F)(F)F)ccc1S(=O)(=O)c1ccc(CNC(=O)c2cc3ccncc3s2)cc1,10.3 nM,24.2
O=C(NCc1ccc(S(=O)(=O)c2cccc(-n3cccn3)c2)cc1)c1cc2ccncc2o1,7.5 nM,9.1
O=C(NCc1ccc(S(=O)(=O)c2cccc(-n3cccn3)c2)cc1)c1ccc2nccn2c1,4.8 nM,6.2
CC(C)COc1cccc(S(=O)(=O)c2ccc(CNC(=O)c3cnc4nccn4c3)cc2)c1,3.9 nM,13.2
CC(C)COc1cccc(S(=O)(=O)c2ccc(CNC(=O)c3ccc4nccn4c3)cc2)c1,15.7 nM,10.6
CC(C)COc1cccc(S(=O)(=O)c2ccc(CNC(=O)c3cc4ccncc4o3)cc2)c1,14.8 nM,67.7
CC(C)COc1cccc(S(=O)(=O)c2ccc(CNC(=O)c3cnc4[nH]ncc4c3)cc2)c1,28.5 nM,34.2
O=C(NCc1ccc(S(=O)(=O)c2cccc(OCC(F)(F)F)c2)cc1)c1cnc2nccn2c1,5.5 nM,11.4
O=C(NCc1ccc(S(=O)(=O)c2cccc(OCC(F)(F)F)c2)cc1)c1ccc2nccn2c1,15 nM,5.9
Cc1cc(C)n(-c2cccc(S(=O)(=O)c3ccc(CNC(=O)c4cc5cc(O)ccc5[nH]4)cc3)c2)n1,100 to 1000 nM,100 to 1000
Cc1cc(C)n(-c2cccc(S(=O)(=O)c3ccc(CNC(=O)c4cnc5nccn5c4)cc3)c2)n1,1.8 nM,4.1
Cc1cc(C)n(-c2cccc(S(=O)(=O)c3ccc(CNC(=O)c4ccc5nccn5c4)cc3)c2)n1,7.2 nM,0.8
Cc1cc(C)n(-c2cccc(S(=O)(=O)c3ccc(CNC(=O)c4cc5cnccc5[nH]4)cc3)c2)n1,13.2 nM,1.6
Cc1cc(C)n(-c2cccc(S(=O)(=O)c3ccc(CNC(=O)c4ccc5ncsc5c4)cc3)c2)n1,17.9 nM,100 to 1000
Cc1cc(C)n(-c2cccc(S(=O)(=O)c3ccc(CNC(=O)c4cc5ccncc5s4)cc3)c2)n1,3.1 nM,1.5
Cc1cc(C)n(-c2cccc(S(=O)(=O)c3ccc(CNC(=O)c4cc5ccncc5o4)cc3)c2)n1,7.1 nM,3.5
Cc1cc(C)n(-c2cccc(S(=O)(=O)c3ccc(CNC(=O)c4cnc5[nH]ncc5c4)cc3)c2)n1,25.3 nM,5.3
O=C(NCc1ccc(S(=O)(=O)c2cccc(Oc3ccc(F)cc3)c2)cc1)c1ccc2nccn2c1,15.1 nM,34
O=C(NCc1ccc(S(=O)(=O)c2cccc(Oc3ccc(F)cc3)c2)cc1)c1cc2ccncc2s1,2.6 nM,65.6
Cc1nc(-c2cccc(S(=O)(=O)c3ccc(CNC(=O)c4cc5ccncc5s4)cc3)c2)no1,3.3 nM,1
Cc1nc(-c2cccc(S(=O)(=O)c3ccc(CNC(=O)c4cnc5nccn5c4)cc3)c2)no1,2.8 nM,2.3

Compound,IC50 (NAMPT),IC50 (A2780 cells) [nM]
O=C(NCc1ccc(S(=O)(=O)c2cccc(C(=O)NC3CCCC3)c2)cc1)c1ccc2nccn2c1,10.3 nM,16.2
O=C(NC1CCCC1)c1cccc(S(=O)(=O)c2ccc(CNC(=O)c3cc4ccncc4s3)cc2)c1,4.8 nM,13.8
O=C(NCc1ccc(S(=O)(=O)c2cccc(C(=O)NC3CCCC3)c2)cc1)c1cnc2nccn2c1,4.7 nM,48.3
CCN(CC)C(=O)c1cc(F)cc(S(=O)(=O)c2ccc(CNC(=O)c3cc4ccncc4o3)cc2)c1,10.3 nM,3.8
CCN(CC)C(=O)c1cc(F)cc(S(=O)(=O)c2ccc(CNC(=O)c3cc4cnccc4[nH]3)cc2)c1,9.3 nM,3.3
O=C(NCc1ccc(S(=O)(=O)c2cccc(OC(F)F)c2)cc1)c1cc2ccncc2o1,2.8 nM,3
O=C(NCc1ccc(S(=O)(=O)c2cccc(OC(F)F)c2)cc1)c1cnc2nccn2c1,2.1 nM,5
CN(C)S(=O)(=O)c1cccc(S(=O)(=O)c2ccc(CNC(=O)c3cnc4nccn4c3)cc2)c1,2 nM,11.2
CCS(=O)(=O)c1cccc(S(=O)(=O)c2ccc(CNC(=O)c3cc4ccncc4s3)cc2)c1,2.8 nM,5.4
CCS(=O)(=O)c1cccc(S(=O)(=O)c2ccc(CNC(=O)c3ccc4nccn4c3)cc2)c1,13.5 nM,6
CCS(=O)(=O)c1cccc(S(=O)(=O)c2ccc(CNC(=O)c3cnc4nccn4c3)cc2)c1,2.7 nM,64.5
CCNC(=O)c1cccc(S(=O)(=O)c2ccc(CNC(=O)c3cnc4nccn4c3)cc2)c1,3.1 nM,65.5
CCNC(=O)c1cccc(S(=O)(=O)c2ccc(CNC(=O)c3cc4ccncc4o3)cc2)c1,6 nM,6.4
COCc1cccc(S(=O)(=O)c2ccc(CNC(=O)c3cc4ccncc4s3)cc2)c1,2.6 nM,6.7
COCc1cccc(S(=O)(=O)c2ccc(CNC(=O)c3cc4ccncc4o3)cc2)c1,18.5 nM,13.4
COCc1cccc(S(=O)(=O)c2ccc(CNC(=O)c3ccc4nccn4c3)cc2)c1,6.7 nM,6.8
CNC(=O)c1cccc(S(=O)(=O)c2ccc(CNC(=O)c3cc4ccncc4o3)cc2)c1,8.1 nM,14.3
CNC(=O)c1cccc(S(=O)(=O)c2ccc(CNC(=O)c3cnc4nccn4c3)cc2)c1,3.7 nM,100 to 1000
O=C(NCc1ccc(S(=O)(=O)c2cccc(N3CCOCC3)c2)cc1)c1cnc2[nH]ncc2c1,16.7 nM,13
O=C(NCc1ccc(S(=O)(=O)c2cccc(N3CCOCC3)c2)cc1)c1cnc2nccn2c1,2.7 nM,13.5
O=C(NCc1ccc(S(=O)(=O)c2cccc(N3CCOCC3)c2)cc1)c1cc2ccncc2s1,4 nM and 3.6 nM,1.9
O=C(NCc1ccc(S(=O)(=O)c2cccc(N3CCOCC3)c2)cc1)c1cc2ccncc2o1,5 nM,5.6
O=C(NCc1ccc(S(=O)(=O)c2cccc(N3CCOCC3)c2)cc1)c1ccc2nccn2c1,7.7 nM,3.3
O=C(NCc1ccc(S(=O)(=O)c2cccc(N3CCCCC3)c2)cc1)c1cnc2[nH]ncc2c1,53.6 nM,14
O=C(NCc1ccc(S(=O)(=O)c2cccc(N3CCCCC3)c2)cc1)c1ccc2ncsc2c1,21 nM,100 to 1000
O=C(NCc1ccc(S(=O)(=O)c2cccc(N3CCCCC3)c2)cc1)c1ccc2nccn2c1,11.4 nM,3.4
O=C(NCc1ccc(S(=O)(=O)c2cccc(N3CCCCC3)c2)cc1)c1cc2cnccc2[nH]1,14.4 nM,3.3
